One may read the IC50 as the concentration that inhibits the measured activity by half.

Where two headings read alike, the source gives them in different places.

The nature of data set [1]: Drug entrapment (encapsulation) efficiency by ultracentrifugation and HPLC. In kind it is physicochemical. Conditions: drug loaded in liposomes; BTZ in lipid bilayer, Y27632 in hydrophilic core. On the procedure: To evaluate loading efficiency, the liposomes were centrifuged at 38,000 rpm at 4° C. for 1 hour using a Beckman Optima™ XPN ultracentrifuge equipped with an SW 50.1 […] rotor (Beckman Coulter Inc., Fullerton, Calif., USA). The amount of BTZ and Y27632 in the supernatant was evaluated by HPLC as described in Example 9. The entrapment efficiency (EE) was calculated according to the following equation: EE=DT−DU/DT×100 where DT represents the total amount of drug added to the formulation during the preparation, and DU represents the amount of unincorporated drug found in the supernatant.

Data set [2] relates to MM.1S cells. The data set can be described thus: Viability of MM cells in co-culture with HUVECs (flow cytometry). It is filed as cell-based. Particulars: Homo sapiens; 24 hours, 0-50 nM, co-culture with HUVECs (FIG. 5B); read-out: IC50, killing of MM cells. On the procedure: (§1) DiD-labeled HUVECs and DiO-labeled MM.1S cells were co-cultured overnight and treated with free BTZ (0-50 nM) or liposomal BTZ (0-50 nM-equivalent) for 24 hours, and the survival of the MMs and HUVECs was analyzed via flow cytometry. MM cells were gated as DiO+ cells and HUVECs were gated as DiD+ cells, and each cell population was counted and normalized against counting beads (Invitrogen), and survival was calculated as a percentage of vehicle-treated controls. The in vitro data were expressed as means±standard deviation.
(In general: Flow cytometry measures light scatter and fluorescence of single cells or particles in a stream.)

Data set [3] concerns HUVECs. The data set can be described thus: Viability of HUVECs in co-culture with MM cells (flow cytometry). It is filed as cell-based, human. Conditions: 24 hours, 0-50 nM, co-culture with MM.1S (FIG. 5C). On the procedure:
as §1

The subject of data set [4] is MM.1S-GFP-Luc cells. In words: MM tumor progression (BLI) and survival in MM.1S-GFP-Luc-bearing mice. In kind it is in vivo. Particulars: weekly intravenous, BTZ 1 mg/kg; for tumor progression / tumor growth (BLI): Y27632 2.5 mg/kg (FIGS. 6A-C, 8A-D); for survival of the mice: Y27632 2.5 mg/kg (FIGS. 6D-F, 9A-D). On the procedure: Mice were randomized into 12 groups of 7 mice each, which received weekly intravenous injections of: (i) saline, (ii) Y27632 as a free drug (2.5 mg/kg), (iii) BTZ as a free drug (1 mg/kg), (iv) combination of free BTZ and free Y27632, (v) empty non-targeted liposomes, (vi) non-targeted liposomal Y27632 (2.5 mg/kg-equivalent), (vii) non-targeted liposomal BTZ (1 mg/kg), (viii) non-targeted liposomal combination of BTZ and Y27632 in the same liposome (2.5 mg/kg and 1 mg/kg, respectively), (ix) empty PSGL-1-targeted liposomes, (x) PSGL-1-targeted liposomal Y27632 (2.5 mg/kg), (xi) PSGL-1-targeted liposomal BTZ (1 mg/kg), (xii) PSGL-1-targeted liposomal combination of BTZ and Y27632 in the same liposome (2.5 mg/kg and 1 mg/kg, respectively). Tumor progression was assessed weekly by BLI, weight was recorded twice a week, and survival and general health of mice were recorded daily. The in vivo data were expressed as means±standard deviation.

For data set [5] the following is noted: in vivo; cited from earlier work.
For data set [6] the following is noted: cited from earlier work.
Data set [7] concerns relapsed MM patients. Particulars: combination treatment of AMD3100 and BTZ; cited from earlier work.
Data set [8] relates to MM.1S cells. In words: Trans-endothelial migration of MM cells in Boyden chamber with SDF-1. Particulars: 25 μM pre-treatment 3 hours, 30 nM SDF-1 (FIG. 4C). In kind it is cell-based. On the procedure: Trans-endothelial migration was by incubating HUVECs (5×10^3 cells) overnight in the upper chamber of a Boyden chamber (Corning), followed by an adhesion assay. MM.1S cells were pre-treated with (or without) free Y27632 (25 μM) or liposomal Y27632 (25 μM equivalent) for 3 hours. The pre-treated MM.1 S cells were then placed in the upper migration chamber in the presence or absence of 30 nM SDF-1 in the lower chamber. After 3 hours of incubation, MM.1 S cells that migrated to the lower chambers were counted by flow cytometry. The in vitro data were expressed as means±standard deviation.

Data set [9] has as its system MM1.S cells. The data set can be described thus: Immunoblotting of adhesion signaling proteins (pSRC, pFAK) in MM cells co-cultured with HUVECs. It is filed as cell-based. Particulars: 25 μM, 6 hours (FIG. 4A). On the procedure: (§2) HUVECs and MM1.S cells were co-cultured overnight and treated with vehicle (control), free Y27632 (25 μM), free BTZ (5 nM), empty liposomes, liposomal Y27632 (25 μM), liposomal BTZ (5 nM) for 6 hours. MM cells were then separated from the HUVECs and both cell types were collected. The proteins were then extracted and subjected to immunoblotting for pSRC, pFAK, p21, pRB, cPARP, cCasp3, cCasp9, pAKT, pS6R, pERK, and α-Tubulin.
(§3) The immunoblotting protocol was performed as previously described below. Briefly, cells were lysed with 1× lysis buffer (Cell Signaling, #9803), the protein concentration was determined by Bradford assay (BioRad, Hercules, Calif.), and 50 μg of protein was loaded per lane. Electrophoresis was performed using NuPAGE 4%-12% Bis-Tris gels (Novex, Life Technologies, Grand Island, N.Y.) and transferred to a nitrocellulose membrane using iBlot (Invitrogen). Membranes were blocked with 5% non-fat milk in Tris-Buffered Saline/Tween20 (TBST) buffer and incubated with primary antibodies overnight at 4° C. The membranes were then washed with TBST for 30 minutes, incubated for 1 hour at room temperature with horseradish peroxidase (HRP)-conjugated secondary antibody, washed, and developed using Novex ECL Plus chemiluminescent Kit. Images were taken using a ChemiDoc XRS imaging system (Bio-Rad).

For data set [10], the system named is HUVECs. The data set can be described thus: Immunoblotting of adhesion signaling proteins (pSRC, pFAK) in HUVECs co-cultured with MM cells. It is filed as cell-based, human. Particulars: 25 μM, 6 hours (FIG. 4B). On the procedure: as §2, §3
On the technique in general: Immunoblotting shows a protein as a band on a membrane.

Take `CC(C)C[C@H](NC(=O)[C@H](Cc1ccccc1)NC(=O)c1cnccn1)B(O)O` [BTZ, bortezomib]: in [1], the “maximal encapsulation efficiency (EE)” value is recorded as 77%. For the same compound, the IC50 in [2] is about 10 nM. Also, in [3], the “survival of HUVECs” value was “No effect”. Also, in data set [4], the “tumor progression / tumor growth (BLI)” value is given as “delayed significantly the tumor growth” and the “survival of the mice” value was “significantly prolonged the survival”. In addition, in data set [5], the “pharmacokinetic (PK) half-life” value is 40 h. Moreover, in data set [6] (intravenous bolus on days 1, 4, 8, and 11 of a 3-week cycle (Vorhees 2003)), the maximum tolerated dose entry is on record as “about 1.56 mg/m^2”. Also, the maximum tolerated dose in data set [6] (intravenously once or twice weekly, patients with solid tumors (Orlowski 2003)) is given as 1.3 mg/m^2.
With `c1cc(CN2CCCNCCNCCCNCC2)ccc1CN1CCCNCCNCCCNCC1` [AMD3100], in [5], the “pharmacokinetic (PK) half-life” value is 3 to 5 h. In addition, in data set [7], the overall response rate is given as 510%.
As to `C[C@@H](N)[C@H]1CC[C@H](C(=O)Nc2ccncc2)CC1` [Y27632], in data set [1], the “maximal encapsulation efficiency (EE)” value worked out at 55%. Also, the “SDF-induced trans-endothelial migration of MM cells” value in data set [8] is recorded as “reversed”. The “adhesion signaling proteins (pSRC and pFAK) in MM cells” value in data set [9] was “decreased adhesion signaling”. For the same compound, the “adhesion signaling proteins (pSRC and pFAK) in HUVECs” value in data set [10] is “decreased adhesion signaling”. Besides, in data set [4], the “tumor progression / tumor growth (BLI)” value was “did not affect the tumor growth” and the “survival of the mice” value was “did not extend the survival”.
